According to patent US20250163104A1, “MACROCYCLIC IMMUNOMODULATORS” (priority 2021, published 2025):
Where a SMILES comes first, the peptide text is derived from it. Bridges are numbered along the chain shown (N, C = ends). [ ]: non-standard residue; d: D form. The star is where a group is joined. Bip(3'-COOH) = N[C@@H](Cc1ccc(-c2cccc(C(=O)O)c2)cc1)C(=O)O; Phe(4-COOH) = N[C@@H](Cc1ccc(C(=O)O)cc1)C(=O)O; Bip = N[C@@H](Cc1ccc(-c2ccccc2)cc1)C(=O)O; Phe(4-CN) = N#Cc1ccc(C[C@H](N)C(=O)O)cc1; Phe(3-Me) = Cc1cccc(C[C@H](N)C(=O)O)c1; Val(3-OH) = CC(C)(O)[C@H](N)C(=O)O; mTyr = N[C@@H](Cc1cccc(O)c1)C(=O)O; 4Pal = N[C@@H](Cc1ccncc1)C(=O)O; Aad = N[C@@H](CCCC(=O)O)C(=O)O; Cha = N[C@@H](CC1CCCCC1)C(=O)O; Cit = NC(=O)NCCC[C@H](N)C(=O)O; Carboxymethyl = O=C(O)C*; Orn = NCCC[C@H](N)C(=O)O; Pra = C#CC[C@H](N)C(=O)O; Dab = NCC[C@H](N)C(=O)O; Dap = NC[C@H](N)C(=O)O; CF3 = FC(F)(F)*

target: T1, human PD-1 / PD-L1-Ig binding on Jurkat cell line over-expressing human PD-1 (Jurkat-PD-1) (Homo sapiens, UniProt Q15116); assay: Jurkat-PD-1 Cell Binding High-Content Screening Assay (CBA); assay type: cell-based; conditions: Jurkat-PD-1 cells, PE-labeled PD-L1-Ig 20 nM final; read-out: Jurkat HPD1_PDL1 IC50
T1 construct: expressed in transfected cells; host or cells: Jurkat
T1 sequence (Q15116 25-288): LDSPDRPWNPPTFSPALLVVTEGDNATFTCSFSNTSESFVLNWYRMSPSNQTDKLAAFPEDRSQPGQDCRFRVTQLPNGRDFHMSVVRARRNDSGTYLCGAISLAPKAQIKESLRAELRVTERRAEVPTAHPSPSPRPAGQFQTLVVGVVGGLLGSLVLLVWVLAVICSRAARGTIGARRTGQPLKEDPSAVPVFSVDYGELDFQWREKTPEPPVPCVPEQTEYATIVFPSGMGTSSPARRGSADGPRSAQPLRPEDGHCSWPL
How it was run: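 PE-PD-L1-Ig 20 nM final; cells in DMEM/10% FCS; cpd pre-incubation 2 h, 37° C; ligand 1 h; PFA fix + Hoechst 33342; high-content imaging read-out.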

Row | Compound | IC50 [nM]
1 | CC(C)C[C@H]1NC(=O)[C@H](CCCN)NC(=O)[C@H](CCC(=O)O)NC(=O)[C@H](Cc2ccc(-c3ccccc3)cc2)NC(=O)[C@H](C(C)C)NC(=O)[C@H](Cc2c[nH]c3ccccc23)NC(=O)[C@H](CC(=O)O)NC(=O)[C@H](Cc2ccc(-c3cccc(C(=O)O)c3)cc2)NC(=O)[C@H](CC(N)=O)NC(=O)CSC[C@@H](C(=O)N[C@@H](C)C(N)=O)NC(=O)[C@H]([C@@H](C)O)NC(=O)[C@H](C(C)C)NC(=O)[C@H](CC2CCCCC2)NC(=O)[C@H](CCN)NC1=O [Compound 2165] ({CH2CO}-N[Bip(3'-COOH)]DWV[Bip]E[Orn][dL][Dab][Cha]VTCA-NH2; thioether N-14) | 24.1
2 | Cc1cccc(C[C@@H]2NC(=O)[C@H](CC(=O)O)NC(=O)[C@H](Cc3ccc(OCC(=O)O)cc3)NC(=O)[C@H](CCCC(=O)O)NC(=O)CSC[C@@H](C(=O)N[C@@H](C)C(N)=O)NC(=O)[C@H](CO)NC(=O)[C@H](C(C)C)NC(=O)[C@H](CC3CCCCC3)NC(=O)[C@H](CCN)NC(=O)[C@@H](CC(C)C)NC(=O)[C@H](CCCN)NC(=O)[C@H](C(C)C)NC(=O)[C@H](Cc3ccc(-c4ccccc4)cc3)NC(=O)[C@H](C(C)C)NC2=O)c1 [Compound 2537] ({CH2CO}-[Aad]Y(Carboxymethyl)D[Phe(3-Me)]V[Bip]V[Orn][dL][Dab][Cha]VSCA-NH2; thioether N-14) | 18.3
3 | CC(C)C[C@H]1NC(=O)[C@H](CCCN)NC(=O)[C@H](CCC(=O)O)NC(=O)[C@H](Cc2ccc(-c3ccccc3)cc2)NC(=O)[C@H](C(C)C)NC(=O)[C@H](Cc2c[nH]c3ccccc23)NC(=O)[C@H](CC(=O)O)NC(=O)[C@H](Cc2ccc(OCC(=O)O)cc2)NC(=O)[C@H](CN)NC(=O)CSC[C@@H](C(=O)N[C@@H](C)C(N)=O)NC(=O)[C@H]([C@@H](C)O)NC(=O)[C@H](C(C)C)NC(=O)[C@H](Cc2cccc(O)c2)NC(=O)[C@H](CCN)NC1=O [Compound 1475] ({CH2CO}-[Dap]Y(Carboxymethyl)DWV[Bip]E[Orn][dL][Dab][mTyr]VTCA-NH2; thioether N-14) | 120
4 | C#CC[C@@H]1NC(=O)[C@H](CC2CCCCC2)NC(=O)[C@H](CCN)NC(=O)[C@@H](CC(C)C)NC(=O)[C@H](CCCN)NC(=O)[C@H](C(C)C)NC(=O)[C@H](Cc2ccc(-c3ccccc3)cc2)NC(=O)[C@H](C(C)C)NC(=O)[C@H](Cc2cccc(C)c2)NC(=O)[C@H](CC(=O)O)NC(=O)[C@H](Cc2ccc(OCC(=O)O)cc2)NC(=O)[C@H](CN)NC(=O)CSC[C@@H](C(N)=O)NC(=O)[C@H]([C@@H](C)O)NC1=O [Compound 2013] ({CH2CO}-[Dap]Y(Carboxymethyl)D[Phe(3-Me)]V[Bip]V[Orn][dL][Dab][Cha][Pra]TC-NH2; thioether N-14) | 21.2
5 | Cc1cccc(C[C@@H]2NC(=O)[C@H](CC(=O)O)NC(=O)[C@H](Cc3ccc(OCC(=O)O)cc3)NC(=O)[C@H](CCN)NC(=O)CSC[C@@H](C(=O)N[C@@H](CCN)C(N)=O)NC(=O)[C@H](CCC(=O)O)NC(=O)[C@H](C(C)(C)O)NC(=O)[C@H](CC3CCCCC3)NC(=O)[C@H](CCN)NC(=O)[C@@H](CC(C)C)NC(=O)[C@H](CCCN)NC(=O)[C@H](Cc3ccc(OC(F)(F)F)cc3)NC(=O)[C@H](Cc3ccc(-c4ccccc4)cc3)NC(=O)[C@H](Cc3ccc(OCC(=O)O)cc3)NC2=O)c1 [Compound 2694] ({CH2CO}-[Dab]Y(Carboxymethyl)D[Phe(3-Me)]Y(Carboxymethyl)[Bip]Y(CF3)[Orn][dL][Dab][Cha][Val(3-OH)]EC[Dab]-NH2; thioether N-14) | 16.5
6 | Cc1cccc(C[C@@H]2NC(=O)[C@H](CC(=O)O)NC(=O)[C@H](Cc3ccc(C#N)cc3)NC(=O)[C@H](Cc3ccncc3)NC(=O)CSC[C@@H](C(=O)N[C@@H](CCN)C(N)=O)NC(=O)[C@H](Cc3c[nH]cn3)NC(=O)[C@H](C(C)(C)O)NC(=O)[C@H](CC3CCCCC3)NC(=O)[C@H](CCN)NC(=O)[C@@H](CC(C)C)NC(=O)[C@H](CCCN)NC(=O)[C@H](Cc3ccc(OCC(=O)O)cc3)NC(=O)[C@H](Cc3ccc(-c4ccccc4)cc3)NC(=O)[C@H](Cc3ccc(OCC(=O)O)cc3)NC2=O)c1 [Compound 2675] ({CH2CO}-[4Pal][Phe(4-CN)]D[Phe(3-Me)]Y(Carboxymethyl)[Bip]Y(Carboxymethyl)[Orn][dL][Dab][Cha][Val(3-OH)]HC[Dab]-NH2; thioether N-14) | 795
7 | C#CC[C@H](NC(=O)[C@H](CCN)NC(=O)[C@@H]1CSCC(=O)N[C@@H](CN)C(=O)N[C@@H](Cc2ccc(OCC(=O)O)cc2)C(=O)N[C@@H](CC(=O)O)C(=O)N[C@@H](Cc2cccc(C)c2)C(=O)N[C@@H](Cc2ccc(C(=O)O)cc2)C(=O)N[C@@H](Cc2ccc(-c3ccccc3)cc2)C(=O)N[C@@H](Cc2ccc(C(=O)O)cc2)C(=O)N[C@@H](CCCN)C(=O)N[C@H](CC(C)C)C(=O)N[C@@H](CCN)C(=O)N[C@@H](CC2CCCCC2)C(=O)N[C@@H](C(C)C)C(=O)N[C@@H](CCC(=O)O)C(=O)N1)C(=O)O [Compound 1825] ({CH2CO}-[Dap]Y(Carboxymethyl)D[Phe(3-Me)][Phe(4-COOH)][Bip][Phe(4-COOH)][Orn][dL][Dab][Cha]VEC[Dab][Pra]-OH; thioether N-14) | 182
8 | C#CC[C@H](NC(=O)[C@@H]1CSCC(=O)N[C@@H](CCN)C(=O)N[C@@H](Cc2ccc(OCC(=O)O)cc2)C(=O)N[C@@H](CC(=O)O)C(=O)N[C@@H](Cc2cccc(C)c2)C(=O)N[C@@H](Cc2ccc(OCC(=O)O)cc2)C(=O)N[C@@H](Cc2ccc(-c3ccccc3)cc2)C(=O)N[C@@H](Cc2ccc(OCC(=O)O)cc2)C(=O)N[C@@H](CCCN)C(=O)N[C@H](CC(C)C)C(=O)N[C@@H](CCN)C(=O)N[C@@H](CC2CCCCC2)C(=O)N[C@@H](C(C)(C)O)C(=O)N[C@@H](CCCN)C(=O)N1)C(=O)O [Compound 2686] ({CH2CO}-[Dab]Y(Carboxymethyl)D[Phe(3-Me)]Y(Carboxymethyl)[Bip]Y(Carboxymethyl)[Orn][dL][Dab][Cha][Val(3-OH)][Orn]C[Pra]-OH; thioether N-14) | 33.3

The next compounds have a lower IC50 than those just listed; values first:

Row | IC50 [nM] | Compound
9 | 15 | CC[C@H](C)[C@@H]1NC(=O)[C@H](Cc2ccc(-c3ccccc3)cc2)NC(=O)[C@H](C(C)C)NC(=O)[C@H](Cc2c[nH]c3ccccc23)NC(=O)[C@H](CC(=O)O)NC(=O)[C@H](Cc2ccncc2)NC(=O)[C@H](CN)NC(=O)CSC[C@@H](C(=O)N[C@@H](C)C(N)=O)NC(=O)[C@H]([C@@H](C)O)NC(=O)[C@H](C(C)C)NC(=O)[C@H](CC(C)C)NC(=O)[C@H](CCN)NC(=O)[C@@H](CC(C)C)NC(=O)[C@H](CCCN)NC1=O [Compound 1238] ({CH2CO}-[Dap][4Pal]DWV[Bip]I[Orn][dL][Dab]LVTCA-NH2; thioether N-14)
10 | 12.8 | Cc1cccc(C[C@@H]2NC(=O)[C@H](CC(=O)O)NC(=O)[C@H](Cc3ccc(C(=O)O)cc3)NC(=O)[C@H](Cc3ccncc3)NC(=O)CSC[C@@H](C(N)=O)NC(=O)[C@H](CCCN)NC(=O)[C@H](C(C)C)NC(=O)[C@H](CC3CCCCC3)NC(=O)[C@H](CCN)NC(=O)[C@@H](CC(C)C)NC(=O)[C@H](CCCN)NC(=O)[C@H](CCCNC(N)=O)NC(=O)[C@H](Cc3ccc(-c4ccccc4)cc3)NC(=O)[C@H](C(C)C)NC2=O)c1 [Compound 2265] ({CH2CO}-[4Pal][Phe(4-COOH)]D[Phe(3-Me)]V[Bip][Cit][Orn][dL][Dab][Cha]V[Orn]C-NH2; thioether N-14)
11 | 7.5 | CC(C)C[C@H]1NC(=O)[C@H](CCCN)NC(=O)[C@H](CCC(=O)O)NC(=O)[C@H](Cc2ccc(-c3ccccc3)cc2)NC(=O)[C@H](C(C)C)NC(=O)[C@H](Cc2ccccc2F)NC(=O)[C@H](CC(=O)O)NC(=O)[C@H](Cc2ccc(OCC(=O)O)cc2)NC(=O)[C@H](CN)NC(=O)CSC[C@@H](C(=O)N[C@@H](C)C(N)=O)NC(=O)[C@H]([C@@H](C)O)NC(=O)[C@H](C(C)C)NC(=O)[C@H](CC2CCCCC2)NC(=O)[C@H](CCN)NC1=O [Compound 2150]
12 | 6.7 | CC(C)C[C@@H]1NC(=O)[C@H](CCN)NC(=O)[C@@H](CC(C)C)NC(=O)[C@H](CCCN)NC(=O)[C@H](C(C)C)NC(=O)[C@H](Cc2ccc(-c3ccccc3)cc2)NC(=O)[C@H](C(C)C)NC(=O)[C@H](Cc2c[nH]c3ccccc23)NC(=O)[C@H](CC(=O)O)NC(=O)[C@H](Cc2ccc(O)cc2)NC(=O)[C@H](Cc2ccncc2)NC(=O)CSC[C@@H](C(=O)N[C@@H](C)C(N)=O)NC(=O)[C@H]([C@@H](C)O)NC(=O)[C@H](C(C)C)NC1=O [Compound 1047] ({CH2CO}-[4Pal]YDWV[Bip]V[Orn][dL][Dab]LVTCA-NH2; thioether N-14)
13 | 5.4 | CC(C)C[C@H]1NC(=O)[C@H](CCCN)NC(=O)[C@H](C(C)C)NC(=O)[C@H](Cc2ccc(-c3ccccc3)cc2)NC(=O)[C@H](C(C)C)NC(=O)[C@H](Cc2c[nH]c3ccccc23)NC(=O)[C@H](CC(=O)O)NC(=O)[C@H](Cc2ccc(OCC(=O)O)cc2)NC(=O)[C@H](CCO)NC(=O)CSC[C@@H](C(=O)N[C@@H](C)C(N)=O)NC(=O)[C@H](C(C)O)NC(=O)[C@H](C(C)C)NC(=O)[C@H](CC2CCCCC2)NC(=O)[C@H](CCN)NC1=O (some centres unmarked) [Compound 2514]
14 | 4.9 | COC[C@@H]1NC(=O)CSC[C@@H](C(=O)N[C@@H](CCN)C(N)=O)NC(=O)[C@H](CO)NC(=O)[C@H](C(C)(C)O)NC(=O)[C@H](CC2CCCCC2)NC(=O)[C@H](CCN)NC(=O)[C@@H](CC(C)C)NC(=O)[C@H](CCCN)NC(=O)[C@H](Cc2ccc(OCC(=O)O)cc2)NC(=O)[C@H](Cc2ccc(-c3ccccc3)cc2)NC(=O)[C@H](Cc2ccc(OCC(=O)O)cc2)NC(=O)[C@H](Cc2cccc(C)c2)NC(=O)[C@H](CC(=O)O)NC(=O)[C@H](Cc2ccc(C(=O)O)cc2)NC1=O [Compound 2078] ({CH2CO}-S(Me)[Phe(4-COOH)]D[Phe(3-Me)]Y(Carboxymethyl)[Bip]Y(Carboxymethyl)[Orn][dL][Dab][Cha][Val(3-OH)]SC[Dab]-NH2; thioether N-14)
